Experimental data: PMC7614683, “A small molecule PI3Kα activator for cardioprotection and neuroregeneration” (Nature, 2023)

Molecular target: T1, full length p110α/p85α (Homo sapiens, UniProt P42336)
T1 construct: Full-length human p110α was expressed either in a complex with full-length human p85α (for HTS, biochemistry and HDX-MS); 6xHis tag followed by TEV protease site (N); host or cells: Spodoptera frugiperda Sf9, baculovirus
Test: HDX-MS
Type: binding
Experimental: Sample preparation: HDX-MS experiments were carried out as described previously. […] In total, three biological replicates, i.e. three separate protein preparations, each with exchange experiments carried out in triplicate were conducted. Data presented in the manuscript is a single biological replicate. Data acquisition and analysis were as follows: Each sample was thawed and injected onto an M-Class Acquity UPLC with HDX Technology (Waters) kept at 0.1°C. Proteins were digested in-line using an Enzymate Pepsin Column (Waters, #186007233) at 15°C for 2 min at 200 μl/min. Peptic peptides were then eluted onto an Acquity UPLC BEH C18 Column (Waters, #186002346) equilibrated in Pepsin-A buffer (0.1% formic acid) and separated using a 5-35% gradient of Pepsin-B buffer (0.1% formic acid, 99% acetonitrile) over 7 min at a flowrate of 40 μl/min. Data were collected on a Waters Cyclic IMS, with an electrospray ionisation source, from 50-2000 m/z. Data were collected in the HDMS^E mode. A single pass of the cyclic IMS was conducted. A “blank” sample of protein dilution buffer with quench was run between samples, and carry-over of peptides was routinely monitored. Five replicates were used to identify non-deuterated peptides. Criteria used to include peptides in the HDX-MS dataset were: minimum intensity 5000, minimum sequence length 5, maximum sequence length 25, a minimum of 3 fragment ions, a minimum of 0.1 products per amino acid, a minimum score of 6.62, a maximum MH+ Error of 10 ppm, identification in at least two datasets with a retention time RSD of less than 10%. Data was analysed using Protein Lynx Global Server (Waters) and DynamX (Waters). All peptides were manually inspected for EX1 kinetics and sufficient quality of the peptide envelope. Data quality, experiment design, and reporting of data meets the criteria as determined by the HDX-MS community. Uptake files were created using Baryonyx. Data are available via ProteomeXchange with identifier PXD037721.

T1 sequence (P42336 whole entry): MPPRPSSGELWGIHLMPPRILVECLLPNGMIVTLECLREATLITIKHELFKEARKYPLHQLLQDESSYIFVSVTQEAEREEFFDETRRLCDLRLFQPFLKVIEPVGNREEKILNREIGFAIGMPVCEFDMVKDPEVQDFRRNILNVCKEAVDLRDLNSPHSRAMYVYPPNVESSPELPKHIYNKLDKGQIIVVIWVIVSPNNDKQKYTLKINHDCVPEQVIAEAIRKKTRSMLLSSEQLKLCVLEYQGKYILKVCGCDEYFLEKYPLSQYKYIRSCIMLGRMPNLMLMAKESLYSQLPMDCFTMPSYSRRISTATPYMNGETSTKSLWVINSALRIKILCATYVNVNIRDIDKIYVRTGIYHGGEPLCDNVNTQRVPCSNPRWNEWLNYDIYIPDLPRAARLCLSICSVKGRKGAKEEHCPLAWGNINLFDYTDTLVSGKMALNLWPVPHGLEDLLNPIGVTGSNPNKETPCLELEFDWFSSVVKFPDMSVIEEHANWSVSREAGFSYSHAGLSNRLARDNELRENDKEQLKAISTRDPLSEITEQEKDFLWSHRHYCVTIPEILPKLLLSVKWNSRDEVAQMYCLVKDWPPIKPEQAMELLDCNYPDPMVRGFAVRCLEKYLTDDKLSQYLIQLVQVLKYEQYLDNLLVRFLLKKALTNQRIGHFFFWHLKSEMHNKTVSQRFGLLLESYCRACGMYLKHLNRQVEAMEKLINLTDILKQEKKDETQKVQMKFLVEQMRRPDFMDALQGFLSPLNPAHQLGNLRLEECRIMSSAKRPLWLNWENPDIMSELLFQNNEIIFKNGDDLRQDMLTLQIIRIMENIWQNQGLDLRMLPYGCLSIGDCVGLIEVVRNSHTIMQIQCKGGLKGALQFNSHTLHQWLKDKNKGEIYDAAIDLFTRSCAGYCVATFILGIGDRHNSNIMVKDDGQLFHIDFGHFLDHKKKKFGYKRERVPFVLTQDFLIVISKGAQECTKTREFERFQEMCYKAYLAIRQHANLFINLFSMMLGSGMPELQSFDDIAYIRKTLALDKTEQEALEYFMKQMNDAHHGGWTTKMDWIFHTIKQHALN
T1 sequence (P27986 whole entry partner): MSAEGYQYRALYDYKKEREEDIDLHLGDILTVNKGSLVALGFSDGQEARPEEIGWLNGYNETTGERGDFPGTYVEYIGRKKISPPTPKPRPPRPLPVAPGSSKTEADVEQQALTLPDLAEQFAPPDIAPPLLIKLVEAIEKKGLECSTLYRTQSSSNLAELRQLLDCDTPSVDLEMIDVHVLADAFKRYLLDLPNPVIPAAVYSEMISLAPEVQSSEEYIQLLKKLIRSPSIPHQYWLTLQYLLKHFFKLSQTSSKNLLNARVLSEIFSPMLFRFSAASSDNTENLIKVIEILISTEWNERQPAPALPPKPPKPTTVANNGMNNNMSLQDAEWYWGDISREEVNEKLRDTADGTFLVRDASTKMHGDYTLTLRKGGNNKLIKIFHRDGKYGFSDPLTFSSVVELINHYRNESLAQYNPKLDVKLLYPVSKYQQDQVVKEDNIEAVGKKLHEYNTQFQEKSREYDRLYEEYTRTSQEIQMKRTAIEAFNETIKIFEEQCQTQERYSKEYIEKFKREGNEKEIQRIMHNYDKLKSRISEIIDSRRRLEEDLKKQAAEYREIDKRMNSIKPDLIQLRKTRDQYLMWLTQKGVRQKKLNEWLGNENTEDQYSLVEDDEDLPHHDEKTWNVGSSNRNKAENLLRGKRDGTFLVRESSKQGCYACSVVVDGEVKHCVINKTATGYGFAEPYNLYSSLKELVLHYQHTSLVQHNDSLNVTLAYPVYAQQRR

## CCN1CCN(c2ccc(Nc3cc(Nc4cccc5c4N(C(C)=O)CC5)ccn3)cc2)CC1 [Compound 1938]
PK3CA_HUMAN peptide 487-498, time column 5 of 5
  HDX difference, percentage: -0.361%
PK3CA_HUMAN peptide 496-507, time column 1 of 5, deuterium exchange time 0.005
  HDX difference, percentage: -1.7%
PK3CA_HUMAN peptide 496-507, time column 2 of 5, deuterium exchange time 0.05
  HDX difference, percentage: 0.429%
PK3CA_HUMAN peptide 496-507, time column 3 of 5, deuterium exchange time 0.5
  HDX difference, percentage: 0.5%
PK3CA_HUMAN peptide 496-507, time column 4 of 5, deuterium exchange time 5
  HDX difference, percentage: 0.6%
PK3CA_HUMAN peptide 496-507, time column 5 of 5
  HDX difference, percentage: 0.121%
PK3CA_HUMAN peptide 508-520, time column 1 of 5, deuterium exchange time 0.005
  HDX difference, percentage: -0.644%
PK3CA_HUMAN peptide 508-520, time column 2 of 5, deuterium exchange time 0.05
  HDX difference, percentage: 1.9%
PK3CA_HUMAN peptide 508-520, time column 3 of 5, deuterium exchange time 0.5
  HDX difference, percentage: 1.4%
PK3CA_HUMAN peptide 508-520, time column 4 of 5, deuterium exchange time 5
  HDX difference, percentage: 1.5%
PK3CA_HUMAN peptide 508-520, time column 5 of 5
  HDX difference, percentage: 0.952%
PK3CA_HUMAN peptide 538-549, time column 1 of 5, deuterium exchange time 0.005
  HDX difference, percentage: -0.8%
PK3CA_HUMAN peptide 538-549, time column 2 of 5, deuterium exchange time 0.05
  HDX difference, percentage: 1.0%
PK3CA_HUMAN peptide 538-549, time column 3 of 5, deuterium exchange time 0.5
  HDX difference, percentage: 0.441%
PK3CA_HUMAN peptide 538-549, time column 4 of 5, deuterium exchange time 5
  HDX difference, percentage: -1.1%
PK3CA_HUMAN peptide 538-549, time column 5 of 5
  HDX difference, percentage: -0.257%
PK3CA_HUMAN peptide 538-554, time column 1 of 5, deuterium exchange time 0.005
  HDX difference, percentage: -1.3%
PK3CA_HUMAN peptide 538-554, time column 2 of 5, deuterium exchange time 0.05
  HDX difference, percentage: 0.7%
PK3CA_HUMAN peptide 538-554, time column 3 of 5, deuterium exchange time 0.5
  HDX difference, percentage: 0.47%
PK3CA_HUMAN peptide 538-554, time column 4 of 5, deuterium exchange time 5
  HDX difference, percentage: -1.1%
PK3CA_HUMAN peptide 538-554, time column 5 of 5
  HDX difference, percentage: -0.74%
PK3CA_HUMAN peptide 555-570, time column 1 of 5, deuterium exchange time 0.005
  HDX difference, percentage: -1.2%
PK3CA_HUMAN peptide 555-570, time column 2 of 5, deuterium exchange time 0.05
  HDX difference, percentage: 0.462%
PK3CA_HUMAN peptide 555-570, time column 3 of 5, deuterium exchange time 0.5
  HDX difference, percentage: 0.2%
PK3CA_HUMAN peptide 555-570, time column 4 of 5, deuterium exchange time 5
  HDX difference, percentage: -1.4%
PK3CA_HUMAN peptide 555-570, time column 5 of 5
  HDX difference, percentage: -2.6%
PK3CA_HUMAN peptide 571-583, time column 1 of 5, deuterium exchange time 0.005
  HDX difference, percentage: -0.6%
PK3CA_HUMAN peptide 571-583, time column 2 of 5, deuterium exchange time 0.05
  HDX difference, percentage: 0.4%
PK3CA_HUMAN peptide 571-583, time column 3 of 5, deuterium exchange time 0.5
  HDX difference, percentage: 0.167%
PK3CA_HUMAN peptide 571-583, time column 4 of 5, deuterium exchange time 5
  HDX difference, percentage: -0.378%
PK3CA_HUMAN peptide 571-583, time column 5 of 5
  HDX difference, percentage: -1.4%
PK3CA_HUMAN peptide 582-596, time column 1 of 5, deuterium exchange time 0.005
  HDX difference, percentage: -1.6%
PK3CA_HUMAN peptide 582-596, time column 2 of 5, deuterium exchange time 0.05
  HDX difference, percentage: 0.374%
PK3CA_HUMAN peptide 582-596, time column 3 of 5, deuterium exchange time 0.5
  HDX difference, percentage: 0.262%
PK3CA_HUMAN peptide 582-596, time column 4 of 5, deuterium exchange time 5
  HDX difference, percentage: 0.76%
PK3CA_HUMAN peptide 582-596, time column 5 of 5
  HDX difference, percentage: 0.0749%
PK3CA_HUMAN peptide 597-606, time column 1 of 5, deuterium exchange time 0.005
  HDX difference, percentage: 0.175%
PK3CA_HUMAN peptide 597-606, time column 2 of 5, deuterium exchange time 0.05
  HDX difference, percentage: 1.6%
PK3CA_HUMAN peptide 597-606, time column 3 of 5, deuterium exchange time 0.5
  HDX difference, percentage: 0.5%
PK3CA_HUMAN peptide 597-606, time column 4 of 5, deuterium exchange time 5
  HDX difference, percentage: 1.4%
PK3CA_HUMAN peptide 597-606, time column 5 of 5
  HDX difference, percentage: 1.3%
PK3CA_HUMAN peptide 610-637, time column 1 of 5, deuterium exchange time 0.005
  HDX difference, percentage: -0.237%
PK3CA_HUMAN peptide 610-637, time column 2 of 5, deuterium exchange time 0.05
  HDX difference, percentage: 0.13%
PK3CA_HUMAN peptide 610-637, time column 3 of 5, deuterium exchange time 0.5
  HDX difference, percentage: 0.2%
PK3CA_HUMAN peptide 610-637, time column 4 of 5, deuterium exchange time 5
  HDX difference, percentage: 0.257%
PK3CA_HUMAN peptide 610-637, time column 5 of 5
  HDX difference, percentage: 0.128%
PK3CA_HUMAN peptide 626-638, time column 1 of 5, deuterium exchange time 0.005
  HDX difference, percentage: -1.2%
PK3CA_HUMAN peptide 626-638, time column 2 of 5, deuterium exchange time 0.05
  HDX difference, percentage: 1.0%
PK3CA_HUMAN peptide 626-638, time column 3 of 5, deuterium exchange time 0.5
  HDX difference, percentage: 0.459%
PK3CA_HUMAN peptide 626-638, time column 4 of 5, deuterium exchange time 5
  HDX difference, percentage: -0.333%
PK3CA_HUMAN peptide 626-638, time column 5 of 5
  HDX difference, percentage: -0.147%
PK3CA_HUMAN peptide 647-658, time column 1 of 5, deuterium exchange time 0.005
  HDX difference, percentage: -0.361%
PK3CA_HUMAN peptide 647-658, time column 2 of 5, deuterium exchange time 0.05
  HDX difference, percentage: 0.6%
PK3CA_HUMAN peptide 647-658, time column 3 of 5, deuterium exchange time 0.5
  HDX difference, percentage: 1.0%
PK3CA_HUMAN peptide 647-658, time column 4 of 5, deuterium exchange time 5
  HDX difference, percentage: 1.2%
PK3CA_HUMAN peptide 647-658, time column 5 of 5
  HDX difference, percentage: -0.0483%
PK3CA_HUMAN peptide 661-687, time column 1 of 5, deuterium exchange time 0.005
  HDX difference, percentage: -1.5%
PK3CA_HUMAN peptide 661-687, time column 2 of 5, deuterium exchange time 0.05
  HDX difference, percentage: 0.4%
PK3CA_HUMAN peptide 661-687, time column 3 of 5, deuterium exchange time 0.5
  HDX difference, percentage: 0.466%
PK3CA_HUMAN peptide 661-687, time column 4 of 5, deuterium exchange time 5
  HDX difference, percentage: 0.23%
PK3CA_HUMAN peptide 661-687, time column 5 of 5
  HDX difference, percentage: -0.271%
PK3CA_HUMAN peptide 688-693, time column 1 of 5, deuterium exchange time 0.005
  HDX difference, percentage: -3.1%
PK3CA_HUMAN peptide 688-693, time column 2 of 5, deuterium exchange time 0.05
  HDX difference, percentage: 0.6%
PK3CA_HUMAN peptide 688-693, time column 3 of 5, deuterium exchange time 0.5
  HDX difference, percentage: -0.142%
PK3CA_HUMAN peptide 688-693, time column 4 of 5, deuterium exchange time 5
  HDX difference, percentage: -0.352%
PK3CA_HUMAN peptide 688-693, time column 5 of 5
  HDX difference, percentage: -0.379%
PK3CA_HUMAN peptide 692-703, time column 1 of 5, deuterium exchange time 0.005
  HDX difference, percentage: -0.563%
PK3CA_HUMAN peptide 692-703, time column 2 of 5, deuterium exchange time 0.05
  HDX difference, percentage: 0.65%
PK3CA_HUMAN peptide 692-703, time column 3 of 5, deuterium exchange time 0.5
  HDX difference, percentage: 0.8%
PK3CA_HUMAN peptide 692-703, time column 4 of 5, deuterium exchange time 5
  HDX difference, percentage: 0.4%
PK3CA_HUMAN peptide 692-703, time column 5 of 5
  HDX difference, percentage: 0.166%
PK3CA_HUMAN peptide 704-709, time column 1 of 5, deuterium exchange time 0.005
  HDX difference, percentage: 0.4%
PK3CA_HUMAN peptide 704-709, time column 2 of 5, deuterium exchange time 0.05
  HDX difference, percentage: 0.074%
PK3CA_HUMAN peptide 704-709, time column 3 of 5, deuterium exchange time 0.5
  HDX difference, percentage: -1.2%
PK3CA_HUMAN peptide 704-709, time column 4 of 5, deuterium exchange time 5
  HDX difference, percentage: -0.7%
PK3CA_HUMAN peptide 704-709, time column 5 of 5
  HDX difference, percentage: 0.531%
